Tests used:
[1] = system: Mouse embryonic fibroblast cells (MEFs); experiment: cells; format: cell-based
Description: (§1) MTT (3-(4,5-dimethylthiazol-2-yl)-2,5-diphenyltetrazolium) assay was performed to determine the effect of AS-10 on cancer cell viability (Plano et al., 2016, J. Med. Chem. 1946-1959; Alcolea et al., 2012, Eur. J. Med. Chem. 113:134-144; Kumar et al., 2014, Eur. J. Med. Chem. 81:267-276). Briefly, 3×10^3 cells were treated with different concentrations of AS-10 in triplicate in a 96-well plate for different time points. MTT solution (20 μL of 5.0 mg/mL solution) was added to each well, three hours prior to termination time point and incubated at 37° C. Resultant formazan crystals, at termination time point, were dissolved in 50 μL DMSO. The plate was subjected to a 96-well multiscanner (Dynex Technologies, MRX Revelation; Chantilly, Va., USA) for measuring the optical densities at 570 nm and 630 nm. IC50 values were determined by performing non-linear regression using Graphpad Prism software.
To determine that AS-10 was selectively toxic to cancer cells, the effect of AS-10 in normal Mouse embryonic fibroblast cells (MEFs) was tested using MTT assay. MEFs were treated with AS-10 for 48 h and the data was compared with Panc-1 cells, treated for 48 h. […] At the dose which yields 50 percent growth inhibition in PC cells, AS-10 had no effect on MEFs growth.

[2] = system: different cancer cell types (breast, colorectal, lung, melanoma, ovarian, prostate); experiment: MTT assay in different cancer cell lines; format: cell-based; settings: 24, 48 and 72 h
Description: as §1

Panc-1 cells [3] = experiment: Cell cycle analysis by flow cytometry; format: cell-based; settings: serum starved 72 h; 24 h to 60 h time points
Description: Flow cytometry was used to determine the cell cycle phases (Plano et al., 2016, J. Med. Chem. 1946-1959). In brief, Panc-1 cells were serum starved for 72 h, followed by treatment with different doses of AS-10 in 10% serum containing media for different time points. Treated cells were fixed in 70% cold ethanol at the end of each time point. Cells were fixed for a minimum of 4 h at 4° C. Following fixation, cells were washed with 1×PBS and were re-suspended in Propidium iodide (PI) staining solution (0.1% (v/v) triton X-100, 20 mg DNAse-free RNAse A and 2 mg of PI in 100 mL PBS). Cells were incubated in the staining solution for 15 minutes at room temperature and then analyzed by a BD FACS Calibur (BD Biosciences) for total DNA content. Modfit software (BD Biosciences) was used to obtain the histograms.

[4] = system: HCT116 colon cancer xenograft; experiment: Colon cancer xenograft tumor inhibition; format: in vivo
Description: Athymic nude mice were used to evaluate the tumor inhibitory effect of AS-10 against a xenograft model of colon cancer. Approximately, 5×10^6 cells (HCT116) were inoculated into both left and right flanks of mice. After eight days, vehicle (DMSO) or AS-10 (45.2 mg/Kg) were injected via IP injection three times per week for 18 days.

NF-κB p65 = experiment: Immunocytochemistry for NF-κB p65 localization; format: cell-based; settings: Panc-1, 10 μM 6 h, TNF-α 30 min
Description: Immunocytochemistry was used to determine the translocation of p65 from cytoplasm to nucleus in presence of inflammatory stimuli either with vehicle or AS-10 (10 μM). In a 12 well plate, Panc-1 cells (1.6×10^5) were seeded on top of a small cover slip in DMEM medium. Cells were allowed to attach to the cover slip overnight at 37° C. incubator with 5% CO2. The next day, cells were treated with 10 μM AS-10 for 6 h and further stimulated with TNF-α (100 ng/mL, 3.9 nM) for 30 min. Exactly after 30 min plates were kept on ice and cells were fixed with 4% Formaldehyde Solution made in PBS for 15 min. Cells were washes three times with 1×PBS, followed by 1 h incubation in blocking medium (0.3% Triton X-100, 5% donkey serum, made in 1×PBS) at room temperature in dark. After blocking coverslips were incubated with primary antibody solution (primary antibody diluted 1:500 in 1% BSA solution containing 0.3% Triton X-100) over night at 4° C. Next day, primary antibody was removed and cover slips were washed three times with 1×PBS. Following incubation with 0.03% H2O2 for 15 minutes at room temperature in dark. After the incubation, secondary antibody (Alexa fluor 680) was added at dilution of 1:500 in 1% BSA containing 0.3% triton X-100 and further incubated for 1 hr. […]

Panc-1 cells [5] = experiment: Western blot analysis of Panc-1 lysates; format: cell-based
Description: Whole-cell lysates were made by subjecting AS-10 treated Panc-1 cells to RIPA lysis buffer (Thermo Scientific, USA) containing protease (Roche, USA) and phosphatase inhibitor cocktails (Sigma-Aldrich, USA) (Plano et al., 2016, J. Med. Chem. 1946-1959). Lysates were spun at 15,000 rpm for 10 minutes. Resulting supernatant was stored at −80° C. until use. NuPAGE gel 4-12% (Life Technologies, Carlsbad, Calif.) was used to resolve the lysates, followed by electro-transfer to PVDF membrane. After the transfer membrane was blocked with 5% non-fat milk and probed with different antibodies. Protein of interest were detected by using enhanced Chemiluminescent reagent (Life technologies, USA). Blots were stripped using Restore Western blot stripping buffer (Thermo Scientific, USA) to save time and samples.

Panc-1 cells [6] = experiment: Colony formation assay; format: cell-based; settings: 48 h treatment, colonies for 17 days
Description: Crystal violet staining method was utilized for performing colony formation assay (Franken et al., 2006, Nat. protoc. 1:2315-2319). In brief, Panc-1 cells were treated with vehicle control (DMSO). 2.5 μM or 10 μM of AS-10 for 48 h. After 48 h treatment period, cells were trypsinized and live cells were counted using tryphan blue dye exclusion assay. Tissue culture plates of size 60×15 mm were seeded with 100 live cells from vehicle treated and 5000 live cells from AS-10 treated cells. Cells were allowed to form colonies for 17 days in DMEM free from DMSO or AS-10 at 37° C. in a 5% CO2 chamber. After 17 days' colonies were stained with 0.5% alcoholic crystal violet. Percentage Plating efficiency (PE) was calculated by the formula: % PE=number of colonies*100/number of cells plated. Data plotted as % relative PE.

CC(=O)Oc1ccccc1C(=O)/N=C1\[Se]CCN1C(=O)c1ccccc1OC(C)=O [AS-10, 2-((3-(2-acetoxybenzoyl)-1,3-selenazolidin-2-ylidene)carbamoyl)phenyl acetate]
effect on MEFs growth [1]: no effect | IC50 ([1]; Mus musculus, Fibroblast, read-out: IC50, normal (Mouse Embryonic Fibroblasts) cells): > 50 µM | growth of different cancer cell types [2]: effectively inhibited growth | cell cycle effect (Panc-1 cells [3]): cell cycle arrest in G1 and G2/M phase and total inhibition of S phase | systemic toxicity from body weights of mice ([4]; 45.2 mg/Kg IP three times per week for 18 days): no apparent no systemic toxicity | tumor growth inhibition compared to vehicle treated mice ([4]; 45.2 mg/kg IP three times per week for 18 days, athymic nude mice): ~70% | translocation of p65 to the nucleus (NF-κB p65): unable to translocate to the nucleus | cleaved caspase 8 (active) (Panc-1 cells [5]): not detected | cleavage of caspase 9 (Panc-1 cells [5]; 10 μM): profound cleavage | acetylation of histones H3 and H4 (Panc-1 cells [5]; 10 μM, increasing time points): able to acetylate histones | cell cycle arrest proteins p21 and p27 (Panc-1 cells [5]; 10 μM, from 6 h for p21 and 12 h for p27): increase | PARP cleavage (Panc-1 cells [5]; Panc-1, 48 h, low dose AS-10 2.5 μM, gemcitabine 50 μM): no effect on PARP cleavage | IκBα degradation (Panc-1 cells [5]; cytosolic lysates, TNF-α stimulation, increasing dose): IκBα is not degraded | active caspase 3 (cleaved caspase 3) and cleaved PARP (Panc-1 cells [5]; increasing concentration, 24 h): increase | expression of Bcl-xL and Mcl-1 (Panc-1 cells [5]; time dependent): inhibited the expression | colonies formed compared to vehicle treated cells (Panc-1 cells [6]): effectively decreased the amount of colonies formed

— patent US10287259B2, “Selenazolidine and thiazolidine compounds for treating cancer and other diseases” (The Penn State Research Foundation, priority 2016, dated 2019)
